This is an account of results in patent US20050153943A1, “Methods of simultaneously treating mucositis and fungal infection” (priority 2002, published 2005).

SMILES strings stand for the structures. In brackets after ≈: the same amount, converted by molar mass. Where a name gives a salt, the structure may show the parent alone. Marks after values point to notes of the source that are not given here.

By IC50 is commonly meant the concentration that inhibits the measured activity by half. A higher IC50 goes with weaker potency in that assay. What is called MIC is the lowest concentration found to suppress growth. Read a high MIC as a less susceptible organism.

The subject of data set [1] is Aspergillus f. As to the kind of experiment: Direct comparison of CMT-3 and Amphotericin B, agar plates (Example 39). It is filed as cell-based. How it is done: The plates were prepared as described above, using […], 0.50, 1.00 and 2.00 concentrations of each of the drugs tested. DMSO was used as a control
Data set [2] has as its system Penicillium spores. As to the kind of experiment: Fungistatic or fungicidal activity: pre-treatment of spores, dilution, regrowth on agar (Example 41). Format: cell-based. How it is done:
In the pre-treatment phase of the experiment, Penicillium spores were suspended in PBS to achieve a spore count of 10^7/ml. CMT-3 and Amphotericin B were dissolved in DMSO to reach a concentration of 1.0 mg/ml as stock solutions. 10 or 50 μl aliquots of these stock solutions were added to the incubation mixture (containing 1.0 ml of 10^7/ml of Penicillium spores in PBS) to achieve a final concentration of 10 μg/ml or 50 μg/ml, respectively, for both drugs. The various incubations of Penicillium were carried out for 24 hours at 30° C.
After the pre-treatment phase, the reaction mixtures were diluted 1000 times with PBS, reducing the concentration of both drugs to 0.01 μg/ml or 0.05 μg/ml, and reducing the Penicillium spore count to 10^4/ml. These drug concentrations of both CMT-3 and Amphotericin B would not be expected to inhibit the growth of the viable Penicillium spores.
Controls were then prepared. Before incubation, each tube was either not diluted further, or diluted to ½ or ¼ with PBS to produce tubes with three different spore counts, ie, 10^4/ml, or 0.5×10^4/ml, or 0.25×10^4/ml. These cultures were then inoculated on potato dextrose agar gels in 24-well plates, and incubated at 30° C. for 48 hours to determine the rate of growth of the fungus as described before.
The controls were prepared from the suspension in the pre-treatment phase containing only Penicillium spores 10^7/ml, and PBS. This control was diluted by 1000 times with PBS to produce a spore count of 10^4/ml. 1.0 ml of this diluted spore suspension was added to eight tubes. The stock solutions of CMT-3 and Amphotericin B, and DMSO were also diluted by 1000 times with PBS (the new concentration being 1.0 μg/ml for both drugs and 0.1% for DMSO), and 10 or 50 μl of these solutions was added into the above tubes. The final concentrations in each tube was either 0.01 μg/ml or 0.05 μg/ml for both drugs (CMT-3 or AmB), or 0.001% or 0.005% for DMSO. These tubes were further treated as described above to determine the growth of the fungus as controls.

Data set [3] has as its system 11 different species of fungi. As to the kind of experiment: Summary of Example 40 over the whole panel. Format: cell-based. As to conditions: 11 tested fungi, up to 4.00 μg/ml. How it is done:
(§1) Each drug was dissolved in DMSO (1.0 mg/ml) as a stock solution and stored at −20° C. Just prior to use, each stock solution was thawed and diluted in DMSO to produce 6 different 100× concentrations. Potato dextrose agar was dissolved in distilled water (39 g/L) and sterilized at […] (250° F.) for 15 min. The agar solution was mixed with each drug (in a water bath at 60° C.) to make a series of final concentrations, i.e. 0.00, 0.25, 0.50, 1.00, 2.00, 4.00 μg/ml. The mixtures were then transferred to 24-well plates (1 ml/well). After the gel had formed, the fungus in PBS (spore count=1-5×10^4/ml) was inoculated by pipetting 10 μl onto each gel. The plates were incubated at 30° C. for different times, depending on the requirement of each species, e.g. 24 hours for Penicillium, Rhizopus, Tricothecium, Ulocladium, Absidia, Aspergilus, Caindida, Cunninghamella, 3 days for Scedosporium, and 5 days for Fonsecae and Phialophora.
(§2) “*” indicates better than or similar results to Amphotericin B. “NI” indicates no detectable inhibition.

Data set [4] concerns Rhizopus sp. As to the kind of experiment: Fungal growth on SABHI agar containing CMT (Example 38). Format: cell-based. The settings on record: 25 μg/ml agar, Example 38. How it is done: The following fungi were inoculated onto potato dextrose agar (PDA) from stock cultures and incubated aerobically at 30° C.: Aspergillus [NT] 1022, Penicillium sp. (laboratory isolate), Candida albicans, ATCC 14053, and Rhizopus sp. […] The conidia were suspended in 0.9% saline and the turbidity was adjusted to match a 0.5 MacFarland standard (equivalent to approximately 1.5×10^8 cells). Candida albicans was suspended in saline and adjusted to 0.5 MacFarland in a similar manner. These suspensions were diluted 1:100 in sterile 0.9% saline. SABHI Agar (Difco) pH 7.0 was prepared in 100 ml amounts and sterilized at 121° C. for 15 min. […] SABHI Agar plates of each CMT and SAHBI agar without CMT using dimethylsulphoxide (DMSO) as a control were inoculated with 10 μl of conidia suspension of Aspergillus fumigatus, Penicillium sp. and Rhizopus sp. and 10 μl suspension of Candida albicans prepared as described above. The plates were then incubated aerobically for 24 hour and for 48 hours at 30° C. The results are set forth in Table 1 (24 hr. incubation) and Table 2 (48 hr. incubation). [table]

Data set [5] relates to eleven different species of fungi. The settings on record: cited from earlier work.
In data set [6] the test system is Aspergillus f. As to the kind of experiment: Direct comparison of CMT-3 and Amphotericin B, agar plates (Example 39). It is filed as cell-based. The source holds these as a separate data set.
In data set [7] the test system is Cunninghamella Species. As to the kind of experiment: IC50 and MIC on microplate agar gels (Example 40). It is filed as cell-based. The settings on record: agar gel, 0.25-4.00 μg/ml, 30° C., 24 hours; NI = no detectable inhibition. How it is done: as §1, §2
Data set [8] concerns Phialophora Verrucosa. As to the kind of experiment: IC50 and MIC on microplate agar gels (Example 40). It is filed as cell-based. The settings on record: agar gel, 0.25-4.00 μg/ml, 30° C., 5 days; NI = no detectable inhibition. How it is done:
as §1, §2

Data set [9] has as its system Scedosporium Apiospermum. As to the kind of experiment: IC50 and MIC on microplate agar gels (Example 40). It is filed as cell-based. As to conditions: agar gel, 0.25-4.00 μg/ml, 30° C., 3 days; NI = no detectable inhibition. How it is done:
as §1, §2

Data set [10] deals with Aspergilus Fumigatus. As to the kind of experiment: IC50 and MIC on microplate agar gels (Example 40). It is filed as cell-based. As to conditions: agar gel, 0.25-4.00 μg/ml, 30° C., 24 hours; NI = no detectable inhibition. How it is done: as §1, §2
Data set [11] has as its system Absidia Species. As to the kind of experiment: IC50 and MIC on microplate agar gels (Example 40). Format: cell-based. As to conditions: agar gel, 0.25-4.00 μg/ml, 30° C., 24 hours; NI = no detectable inhibition. How it is done:
as §1, §2

Data set [12] relates to Candida Albicans. As to the kind of experiment: IC50 and MIC on microplate agar gels (Example 40). It is filed as cell-based. The settings on record: agar gel, 0.25-4.00 μg/ml, 30° C., 24 hours; NI = no detectable inhibition. How it is done: as §1, §2
The test system of data set [13] is Rhizopus Species. As to the kind of experiment: IC50 and MIC on microplate agar gels (Example 40). Format: cell-based. As to conditions: agar gel, 0.25-4.00 μg/ml, 30° C., 24 hours; NI = no detectable inhibition. How it is done: as §1, §2
Data set [14] relates to Fonsecae Species. As to the kind of experiment: IC50 and MIC on microplate agar gels (Example 40). As to conditions: agar gel, 0.25-4.00 μg/ml, 30° C., 5 days; NI = no detectable inhibition. Format: cell-based. How it is done:
as §1, §2

For data set [15], the system named is Tricothecium Species. As to the kind of experiment: IC50 and MIC on microplate agar gels (Example 40). Format: cell-based. The settings on record: agar gel, 0.25-4.00 μg/ml, 30° C., 24 hours; NI = no detectable inhibition. How it is done: as §1, §2
Data set [16] relates to Ulocladium Species. As to the kind of experiment: IC50 and MIC on microplate agar gels (Example 40). It is filed as cell-based. As to conditions: agar gel, 0.25-4.00 μg/ml, 30° C., 24 hours; NI = no detectable inhibition. How it is done: as §1, §2
For data set [17], the system named is Penicillium Species. As to the kind of experiment: IC50 and MIC on microplate agar gels (Example 40). The settings on record: agar gel, 0.25-4.00 μg/ml, 30° C., 24 hours; NI = no detectable inhibition. It is filed as cell-based. How it is done: as §1, §2
The nature of data set [18]: Toxicity in vivo (statement). The settings on record: at 2.0 μg/ml concentration; unlike AmB.
The conditions of data set [19]: single dose of two 100 mg minocycline HCl tablets; cited from earlier work.
The conditions of data set [20]: 250 mg every six hours over a twenty-four hour period; cited from earlier work.

On to `NC(=O)C1=C(O)C[C@@H]2C[C@@H]3Cc4cccc(O)c4C(=O)C3=C(O)[C@]2(O)C1=O` [COL 3, 6-demethyl-6-deoxy-4-dedimethylaminotetracycline], for which the “Growth grade at Conc. 0.125 μg/ml” value in data set [1] (0.125 μg/ml) is recorded as 4 (Level of growth in the absence of anti-fungal agent (control).). Further, the “Growth grade at Conc. 0.50 μg/ml” value in data set [1] (0.50 μg/ml) is 1 (75% reduction in growth in colonies compared to control.). In addition, the Fungal growth inhibited is reported as 95% in data set [1] (1.0 μg/ml) and 100% in data set [1] (2.0 μg/ml). Also, in data set [1] (2.00 μg/ml), the “Growth grade at Conc. 2.00 μg/ml” value is listed as 0 (complete inhibition of growth.). The “Growth rate of Penicillium in control cultures with low drug concentration” value in data set [2] (0.01 and 0.05 μl/ml, no pre-treatment) is listed as “did not inhibit the growth”. In data set [2] (against Penicillium), the “Type of antifungal activity (fungistatic or fungicidal)” value is given as “fungicidal”. Further, the “Growth of Penicillium on agar gels after pretreatment of spores” value in data set [2] (pretreatment with 10 and 50 μl/ml for 24 hours at 30° C., diluted 1000 times, 48 hours on agar) is listed as “little or no growth”. Besides, the “Antifungal activity over the panel (summary in words)” value in [3] is reported as “effective on all 11 tested fungi”. Further, the “Anti-fungal activity (summary in words)” value in data set [4] is given as “inhibited”. In data set [5], the “Anti-fungal activity in vitro (Lu et al.)” value was “anti-fungal activity with eight of the eleven species”. For the same compound, the “Growth grade at Conc. 0.25 μg/ml” value in [6] is given as 2 (50% reduction in growth of colonies compared to control.). Further, the IC50 in data set [7] turned out to be 2.0 µg/mL (≈ 5.39 µM); in [8] it was 1.5 µg/mL (≈ 4.04 µM); in data set [9], 0.2 µg/mL (≈ 0.539 µM); in data set [10], 0.5 µg/mL (≈ 1.35 µM); in data set [11] it was 1.5 µg/mL (≈ 4.04 µM); in data set [12], 1.0 µg/mL (≈ 2.69 µM). The IC50 in [13] is 0.8 µg/mL (≈ 2.15 µM); in data set [14], 1.0 µg/mL (≈ 2.69 µM); in data set [15], 0.2 µg/mL (≈ 0.539 µM); in data set [16] it was 0.25 µg/mL (≈ 0.673 µM); in data set [17], 0.2 µg/mL (≈ 0.539 µM). The MIC in data set [7] is 4.0* μg/ml; in [8] it was 4.0* μg/ml; in data set [9] it was 1.5* μg/ml; in data set [10] it was 1.0* μg/ml; in data set [11], 4.0* μg/ml; in [12], 2.0 µg/mL (≈ 5.39 µM). Further, the MIC in data set [13] was 2.0 µg/mL (≈ 5.39 µM); in data set [14] it was 4.0* μg/ml; in data set [15], 1.5* μg/ml; in [16] it was 1.0* μg/ml; in data set [17] it was 0.5 µg/mL (≈ 1.35 µM). Further, in data set [18], the Toxicity in vivo entry is reported as “very little toxicity”.

As to `CN(C)c1ccc(O)c2c1C[C@H]1C[C@H]3[C@H](N(C)C)C(O)=C(C(N)=O)C(=O)[C@@]3(O)C(O)=C1C2=O` [minocycline HCl], the “average minocycline serum level” value in data set [19] was 2.24 µg/mL.

In the case of `CN(C)[C@@H]1C(O)=C(C(N)=O)C(=O)[C@@]2(O)C(O)=C3C(=O)c4c(O)cccc4[C@@](C)(O)[C@H]3C[C@@H]12` [tetracycline HCl], the peak plasma concentration entry in [20] is “approximately 3 μg/ml”.
